Results on 26 compounds are retold here after US20260035384A1, “COMPOUND CONTAINING CYCLOHEXYL” (CHIA TAI TIANQING PHARMACEUTICAL GROUP CO., LTD., priority 2022, published 2026).

The structures appear in SMILES notation.

Holding throughout (assay type): cell-based
For assay [1], the system named is LNCaP cells. Nature of the assay: Assay on inhibitory activity for LNCaP cell proliferation (CCK-8). Conditions: 168 h incubation. On the procedure:
(§1) LNCaP cells in a good growth state were taken, washed with PBS, digested with pancreatin, and added with 2% CSS—FBS phenol red-free 1640 complete medium to terminate the digestion. The cells were collected by using a centrifuge tube, adjusted to a cell density of 1×10^5 cells/mL, and seeded in a 96-well plate (100 μL/well). Meanwhile, compounds were added using a nanoliter pipettor such that the final concentrations of the compounds were 10000 nM-0.61 nM. Two duplicate wells were set for each concentration, and meanwhile, a control was set. After another 168 h of incubation in the cell incubator, the detection reagent CCK-8 (manufacturer: Dojindo, 10 μL/well) was added.

Assay [2] concerns the target T1, AR in LNCaP cells (Homo sapiens, UniProt P10275, T878A).
T1 construct: Assay on Degradation Activity for AR in LNCaP Cells; endogenous in cells; host or cells: LNCaP cells
T1 sequence (P10275 1-920 T878A): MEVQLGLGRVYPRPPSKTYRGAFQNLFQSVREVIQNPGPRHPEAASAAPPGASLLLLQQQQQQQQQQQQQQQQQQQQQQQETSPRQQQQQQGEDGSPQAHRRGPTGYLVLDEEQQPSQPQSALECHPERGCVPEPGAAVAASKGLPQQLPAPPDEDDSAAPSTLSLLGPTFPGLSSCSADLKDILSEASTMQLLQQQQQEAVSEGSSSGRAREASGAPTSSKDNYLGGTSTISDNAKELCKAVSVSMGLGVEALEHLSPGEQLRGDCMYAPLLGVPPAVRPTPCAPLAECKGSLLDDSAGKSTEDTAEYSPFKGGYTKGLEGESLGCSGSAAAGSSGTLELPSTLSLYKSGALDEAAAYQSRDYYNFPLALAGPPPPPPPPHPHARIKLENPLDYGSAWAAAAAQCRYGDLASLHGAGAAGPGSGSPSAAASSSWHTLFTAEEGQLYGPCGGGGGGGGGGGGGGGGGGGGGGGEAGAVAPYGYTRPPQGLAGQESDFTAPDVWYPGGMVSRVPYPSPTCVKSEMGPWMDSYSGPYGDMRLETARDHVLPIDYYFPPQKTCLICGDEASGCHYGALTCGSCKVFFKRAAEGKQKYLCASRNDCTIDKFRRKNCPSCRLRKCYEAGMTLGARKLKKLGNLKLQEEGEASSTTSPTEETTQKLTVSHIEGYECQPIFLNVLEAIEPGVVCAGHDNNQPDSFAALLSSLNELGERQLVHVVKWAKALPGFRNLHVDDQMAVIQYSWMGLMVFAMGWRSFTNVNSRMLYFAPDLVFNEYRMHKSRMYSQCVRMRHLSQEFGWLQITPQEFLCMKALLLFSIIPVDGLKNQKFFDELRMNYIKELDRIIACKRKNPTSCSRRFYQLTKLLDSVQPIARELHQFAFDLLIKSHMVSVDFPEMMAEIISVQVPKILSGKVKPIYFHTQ
Nature of the assay: Assay on degradation activity for AR in LNCaP cells (HTRF human androgen receptor detection kit). Particulars: 24 h incubation. As to the method:
The detection was carried out using the HTRF HUMAN ANDROGEN RECEPTOR DETECTION KIT (cisbio, 64ANDRPEG), 4× Supplemented Lysis buffer was prepared using the Blocking reagent stock solution (100×) and Lysis buffer stock solution (4×), and 1× Supplemented Lysis buffer was prepared using the 4× Supplemented Lysis buffer and ddH2O. Premixed antibody solutions were prepared using Detection buffer, Androgen Receptor Eu Cryptate antibody, and Androgen Receptor d2 antibody.
LNCaP cells in a good growth state were taken, washed with PBS, digested with pancreatin, and added with 2% CSS—FBS phenol red-free 1640 complete medium to terminate the digestion. The cells were collected by using a centrifuge tube, adjusted to a cell density of 1×10^6 cells/mL, and seeded in a 96-well plate (100 μL/well). The cells were incubated overnight in a cell incubator. Compounds were added using a nanoliter pipettor such that the final concentrations of the compounds were 500 nM-0.488 nM. Two duplicate wells were set for each concentration, and meanwhile, a control was set. After another 24 h of incubation in the cell incubator, the medium was pipetted out, the 1× Supplemented Lysis buffer was added at 40 μL/well to lyse the cells. After the cells were oscillated for 40 min at room temperature, 16 μL of the cell lysate was added to a 384-well plate, the Premixed antibody solutions were added at 4 μL/well, and the mixture was left to stand at 25° C. for 2 h. Fluorescence values were detected at 665 nm/620 nm using an Envision microplate reader, the four-parameter analysis was performed, the dose-response curves were fit, and DC50 (the concentration of the drug when the degradation rate reaches 50%) and Dmax (the maximum degradation rate) were calculated.
On the technique in general: In TR-FRET formats the signal depends on donor and acceptor labels being close together.

Assay [3] relates to VCaP cells. Nature of the assay: Assay on inhibitory activity for VCaP cell proliferation (CCK-8). Conditions: 168 h incubation. As to the method:
as §1, with “2.1 Assay on inhibitory activity for VCaP cell proliferation VCaP” for “LNCaP”, “5%” for “2%”, “DMEM” for “1640”

The IC50 is the concentration that gives 50% inhibition. High values mean weaker potency in that assay, low ones greater potency in that assay. Usually DC50 stands for the concentration at which degradation of the target reaches its halfway point. As usually defined, the Dmax is the largest share of the target that was removed. A low value points to shallow degradation. Take `N#Cc1ccc(O[C@H]2CC[C@H](NC(=O)c3ccc(N4CCC(CN5CCc6ccc7c(C8CCC(=O)NC8=O)noc7c6CC5)CC4)nn3)CC2)cc1Cl` (stereo partly drawn) [Compound 20]: the concentration for half-maximal inhibition (IC50) in assay [1] (Homo sapiens) is less than 1000 nM. Besides, in assay [2] (HTRF), the half-maximal degradation concentration (DC50) is not above 20 nM. Besides, in assay [2] (maximum degradation rate), the Dmax was more than 80%.
On to `N#Cc1ccc(O[C@H]2CC[C@H](NC(=O)c3ccc(N4CCN(CC5Cc6ccc7c(C8CCC(=O)NC8=O)coc7c6C5)CC4)nn3)CC2)cc1Cl` (stereo partly drawn) [Compound 28], for which the IC50 in assay [1] (Homo sapiens) was less than 1000 nM; in assay [3] (Homo sapiens, VCaP, 168 h) it was less than 100 nM.
For `N#Cc1ccc(O[C@H]2CC[C@H](NC(=O)c3ccc(N4CCC(CN5CCC(n6ccc7c8c(C9CCC(=O)NC9=O)noc8ccc76)CC5)CC4)nn3)CC2)cc1Cl` (stereo partly drawn) [Compound 41] the same measures were less than 1000 nM and less than 10 nM.
For `N#Cc1ccc(O[C@H]2CC[C@H](NC(=O)c3ccc(C4CCN(C5CC(n6ncc7c8c(C9CCC(=O)NC9=O)noc8ccc76)C5)CC4)nn3)CC2)cc1Cl` (stereo partly drawn) [Compound 46], in that order: less than 1000 nM and less than 10 nM.
Regarding `N#Cc1ccc(O[C@H]2CC[C@H](NC(=O)c3ccc(N4CCC(N5CC(CN6CCc7ccc8c(C9CCC(=O)NC9=O)noc8c7CC6)C5)CC4)nn3)CC2)cc1Cl` (stereo partly drawn) [Compound 93], the IC50 is less than 1000 nM in assay [1] (Homo sapiens) and less than 10 nM in assay [3] (Homo sapiens, VCaP, 168 h).
For `N#Cc1ccc(O[C@H]2CC[C@H](NC(=O)c3ccc(N4CCC(N5CC(CN6CCc7ccc8c(C9CCC(=O)NC9=O)coc8c7CC6)C5)CC4)nn3)CC2)cc1Cl` (stereo partly drawn) [Compound 99], in that order: less than 1000 nM and less than 100 nM.
For `N#Cc1ccc(O[C@H]2CC[C@H](NC(=O)c3cnc(C4CCN(C5CN(CC6Cc7ccc8c(C9CCC(=O)NC9=O)coc8c7C6)C5)CC4)nc3)CC2)cc1Cl` (stereo partly drawn) [Compound 111], the half-inhibitory concentration (IC50) was less than 1000 nM in assay [1] (Homo sapiens) and less than 100 nM in assay [3].
As for `N#Cc1ccc(O[C@H]2CC[C@H](NC(=O)c3cnc(C4CCN(C5CN(CC6Cc7ccc8c(C9CCC(=O)NC9=O)coc8c7C6)C5)CC4)nc3)CC2)cc1Cl` (stereo partly drawn) [Compound 112], the IC50 in assay [1] and in assay [3] was less than 1000 nM in each case.
Take `CN(c1ccc(C#N)c(Cl)c1)[C@H]1CC[C@H](NC(=O)c2cnc(N3CC(CN4CCc5c(ccc6c(C7CCC(=O)NC7=O)noc56)C4)C3)nc2)CC1` (stereo partly drawn) [Compound 114]: the IC50 was less than 1000 nM in assay [1] (Homo sapiens) and less than 100 nM in assay [3] (Homo sapiens, VCaP, 168 h).
For `N#Cc1ccc(O[C@H]2CC[C@H](NC(=O)c3cnc(N4CCC(CN5CCc6ccc7c(C8CCC(=O)NC8=O)noc7c6C5)CC4)nc3)CC2)cc1Cl` (stereo partly drawn) [Compound 120] the same measures were less than 1000 nM and less than 1000 nM.
For `N#Cc1ccc(O[C@H]2CC[C@H](NC(=O)c3cnc(N4CCC(CN5CCc6c(ccc7c(C8CCC(=O)NC8=O)noc67)C5)CC4)nc3)CC2)cc1Cl` (stereo partly drawn) [Compound 121] the same measures were less than 1000 nM and less than 10 nM.
For the compound `N#Cc1ccc(O[C@H]2CC[C@H](NC(=O)c3cnc(N4CCN(CC5Cc6ccc7c(C8CCC(=O)NC8=O)noc7c6C5)CC4)nc3)CC2)cc1Cl` (stereo partly drawn) [Compound 123], the IC50 in assay [1] (Homo sapiens) was less than 1000 nM; in assay [3] (Homo sapiens, VCaP, 168 h), less than 1000 nM.
As for `N#Cc1ccc(O[C@H]2CC[C@H](NC(=O)c3cnc(C4CCN(CC5Cc6ccc7c(C8CCC(=O)NC8=O)noc7c6C5)CC4)nc3)CC2)cc1Cl` (stereo partly drawn) [Compound 125], the IC50 in assay [3] (Homo sapiens, VCaP, 168 h) is less than 1000 nM.
The same measure, in the same setting: under `N#Cc1ccc(O[C@H]2CC[C@H](NC(=O)c3cnc(C4=CCN(CC5Cc6ccc7c(C8CCC(=O)NC8=O)noc7c6C5)CC4)nc3)CC2)cc1Cl` (stereo partly drawn) [Compound 127] stands less than 100 nM.
Take `N#Cc1ccc(O[C@H]2CC[C@H](NC(=O)c3cnc(N4CCC5(CC4)CC(CN4Cc6ccc7c(C8CCC(=O)NC8=O)noc7c6C4)C5)nc3)CC2)cc1Cl` (stereo partly drawn) [Compound 128]: the IC50 was less than 1000 nM in assay [1] (Homo sapiens) and less than 100 nM in assay [3] (Homo sapiens, VCaP, 168 h).
For `N#Cc1ccc(O[C@H]2CC[C@H](NC(=O)c3cnc(N4CCC5(CC4)CC(CN4CCc6ccc7c(C8CCC(=O)NC8=O)noc7c6C4)C5)nc3)CC2)cc1Cl` (stereo partly drawn) [Compound 129], in that order: less than 1000 nM and less than 100 nM.
For `N#Cc1ccc(O[C@H]2CC[C@H](NC(=O)c3cnc(N4CCC5(CC4)CC(CN4CCc6c(ccc7c(C8CCC(=O)NC8=O)noc67)C4)C5)nc3)CC2)cc1Cl` (stereo partly drawn) [Compound 130], in that order: less than 1000 nM and less than 100 nM.
For `N#Cc1ccc(O[C@H]2CC[C@H](NC(=O)c3cnc(N4CCC5(CC4)CC(CN4CCc6ccc7c(C8CCC(=O)NC8=O)noc7c6CC4)C5)nc3)CC2)cc1Cl` (stereo partly drawn) [Compound 131], in that order: less than 1000 nM and less than 100 nM.
For `N#Cc1ccc(O[C@H]2CC[C@H](NC(=O)c3cnc(N4CCC(CN5Cc6ccc7c(C8CCC(=O)NC8=O)coc7c6C5)CC4)nc3)CC2)cc1Cl` (stereo partly drawn) [Compound 132], the IC50 in assay [1] (Homo sapiens) is less than 1000 nM; in assay [3] (Homo sapiens, VCaP, 168 h), less than 1000 nM.
As for `N#Cc1ccc(O[C@H]2CC[C@H](NC(=O)c3cnc(N4CCC(CN5CCc6ccc7c(C8CCC(=O)NC8=O)coc7c6C5)CC4)nc3)CC2)cc1Cl` (stereo partly drawn) [Compound 133], the IC50 in assay [1] (Homo sapiens) is less than 1000 nM; in assay [3] (Homo sapiens, VCaP, 168 h), less than 1000 nM.
For the compound `N#Cc1ccc(O[C@H]2CC[C@H](NC(=O)c3cnc(N4CCC(CN5CCc6c(ccc7c(C8CCC(=O)NC8=O)coc67)C5)CC4)nc3)CC2)cc1Cl` (stereo partly drawn) [Compound 134], the IC50 in assay [1] (Homo sapiens) was less than 1000 nM; in assay [3] (Homo sapiens, VCaP, 168 h) it was less than 100 nM.
In the case of `N#Cc1ccc(O[C@H]2CC[C@H](NC(=O)c3cnc(N4CCN(CC5Cc6ccc7c(C8CCC(=O)NC8=O)coc7c6C5)CC4)nc3)CC2)cc1Cl` (stereo partly drawn) [Compound 136], the IC50 was less than 1000 nM in assay [1] (Homo sapiens) and less than 1000 nM in assay [3] (Homo sapiens, VCaP, 168 h).
As for `N#Cc1ccc(O[C@H]2CC[C@H](NC(=O)c3cnc(N4CCN(CC5Cc6ccc7c(C8CCC(=O)NC8=O)coc7c6C5)CC4)nc3)CC2)cc1Cl` (stereo partly drawn) [Compound 137], the IC50 in assay [1] and in assay [3] was less than 1000 nM each time.
On to `N#Cc1ccc(O[C@H]2CC[C@H](NC(=O)c3cnc(N4CCC(CN5CCc6ccc7c(N8CCC(=O)NC8=O)coc7c6C5)CC4)nc3)CC2)cc1Cl` [Compound 139], for which the IC50 in assay [1] (Homo sapiens) is less than 1000 nM; in assay [3] (Homo sapiens, VCaP, 168 h), less than 1000 nM.
For `N#Cc1ccc(O[C@H]2CC[C@H](NC(=O)c3cnc(N4CC(CN5CCc6c(ccc7c(C8CCC(=O)NC8=O)noc67)C5)C4)nc3)CC2)cc1Cl` (stereo partly drawn) [Compound 142], the IC50 is less than 1000 nM in assay [1] (Homo sapiens) and less than 1000 nM in assay [3] (Homo sapiens, VCaP, 168 h).
Turning to `N#Cc1ccc(O[C@H]2CC[C@H](NC(=O)c3ncc(N4CCC(CN5CCc6c(ccc7c(C8CCC(=O)NC8=O)noc67)C5)CC4)cn3)CC2)cc1Cl` (stereo partly drawn) [Compound 146], the IC50 was less than 1000 nM in assay [1] (Homo sapiens) and less than 1000 nM in assay [3] (Homo sapiens, VCaP, 168 h).
